Source: the supplement of paper PMC5908809

Experiments:
[1] = test system: NK-92 (IL-2 2.5 ng/mL); test: drug sensitivity score (DSS) (DSS units); higher = more sensitive; extreme values may be limits of the assay; conditions: 72 h
[2] = test system: YT (IL-2 2.5 ng/mL); test: as above; conditions: 72 h
[3] = test system: normal primary NK cells, pool 1 (3 donors), resting (IL-2 0 ng/mL); test: as above; conditions: 72 h
[4] = test system: SNK-6 (IL-2 2.5 ng/mL); test: as above; conditions: 72 h
[5] = test system: NK-YS (IL-2 2.5 ng/mL); test: as above; conditions: 72 h
[6] = test system: normal primary NK cells, pool 1 (3 donors) (IL-2 2.5 ng/mL); test: as above; conditions: 72 h
[7] = test system: KAI3 (IL-2 2.5 ng/mL); test: as above; conditions: 72 h
[8] = test system: KHYG-1 (IL-2 2.5 ng/mL); test: as above; conditions: 72 h
[9] = test system: IMC-1 (IL-2 20 ng/mL); test: as above; conditions: 72 h
[10] = test system: normal primary NK cells, pool 3 (3 donors) (IL-2 2.5 ng/mL); test: as above; conditions: 72 h
[11] = test system: normal primary NK cells, pool 2 (3 donors) (IL-2 2.5 ng/mL); test: as above; conditions: 72 h
[12] = test system: DERL-7 (IL-2 2.5 ng/mL); test: as above; conditions: 72 h
[13] = test system: NKL (IL-2 2.5 ng/mL); test: as above; conditions: 72 h
[14] = test system: NK-92 (IL-2 2.5 ng/mL); test: percent inhibition of viability; higher = more inhibition; conditions: 72 h
[15] = test system: YT (IL-2 2.5 ng/mL); test: as above; conditions: 72 h
[16] = test system: normal primary NK cells, pool 1 (3 donors), resting (IL-2 0 ng/mL); test: as above; conditions: 72 h
[17] = test system: SNK-6 (IL-2 2.5 ng/mL); test: as above; conditions: 72 h
[18] = test system: NK-YS (IL-2 2.5 ng/mL); test: as above; conditions: 72 h
[19] = test system: normal primary NK cells, pool 1 (3 donors) (IL-2 2.5 ng/mL); test: as above; conditions: 72 h
[20] = test system: KAI3 (IL-2 2.5 ng/mL); test: as above; conditions: 72 h
[21] = test system: KHYG-1 (IL-2 2.5 ng/mL); test: as above; conditions: 72 h
[22] = test system: IMC-1 (IL-2 20 ng/mL); test: as above; conditions: 72 h
[23] = test system: normal primary NK cells, pool 3 (3 donors) (IL-2 2.5 ng/mL); test: as above; conditions: 72 h
[24] = test system: normal primary NK cells, pool 2 (3 donors) (IL-2 2.5 ng/mL); test: as above; conditions: 72 h
[25] = test system: DERL-7 (IL-2 2.5 ng/mL); test: as above; conditions: 72 h
[26] = test system: NKL (IL-2 2.5 ng/mL); test: as above; conditions: 72 h
[27] = test system: normal NK cells expanded with K562-aAPC; test: as above; conditions: 72 h, IL-2 2.5 ng/mL
Protocol: (§1)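 Drug sensitivity and resistance testing on K562-aAPC-expanded normal NK cells: 5 concentrations (10-fold steps over a 10,000-fold range), 72 h at 37 °C, viability by CellTiter-Glo normalised to DMSO and benzethonium chloride controls; DSS from the fitted curve.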

[28] = test system: normal NK cells expanded with K562-aAPC; test: drug sensitivity score (DSS) (DSS units); higher = more sensitive; extreme values may be limits of the assay; conditions: 72 h; IL-2 2.5 ng/mL
Protocol: as §1

COc1cc(C(=O)NC2CCN(C)CC2)c(F)cc1Nc1ncc2c(n1)N(C1CCCC1)CC(F)(F)C(=O)N2C [TAK-960] (max concentration tested 2500 nM)
Conditions	drug sensitivity score
[1]	0.18
[2]	0
[3]	0
[4]	13
[5]	0
[6]	0
[7]	0
[8]	0
[9]	0.63
[10]	0
[11]	0.16
[12]	0.89
[13]	0
[28]	0

percent inhibition of viability [%]
Conditions	0.25 nM	2.5 nM	25 nM	250 nM	2500 nM
[14]	-8.09	-7.71	9.2	-1.64	15.2
[15]	1.09	0.71	8.79	0.43	6.32
[16]	11.1	-6.28	-3.33	-13.8	-6.51
[17]	22.6	22	36.4	38	22.1
[18]	-3.49	1.57	0.97	0.32	6.84
[19]	7.7	-2.83	-1.46	-9	3.2
[20]	-8.99	-1.96	-2.51	-1.54	2.64
[21]	0.04	3.31	3.4	2.48	6.51
[22]	-4.4	4.01	9.33	8.23	11.8
[23]	-10.9	-5.87	7.99	-6.67	-0.88
[24]	-10.9	-4.09	10.7	0.25	13.6
[25]	-1.39	-5.61	-0.81	-6.15	-11.4
[26]	-17.8	-2.17	0.04	4.31	2.51
[27]	-3.09	0.01	0.41	9.42	8.37

CCc1c(C(=O)C(N)=O)c2c(OCC(=O)O)cccc2n1Cc1ccccc1 [Varespladib] (max concentration tested 10000 nM)
Conditions	drug sensitivity score
[1]	1.34
[2]	0.02
[3]	2.05
[4]	0
[5]	0.22
[6]	0
[7]	0.68
[8]	0
[9]	0
[10]	0
[11]	0
[12]	0
[13]	0
[28]	0

percent inhibition of viability [%]
Conditions	1 nM	10 nM	100 nM	1000 nM	10000 nM
[14]	-21.4	-19.5	-14.8	-0.75	31.5
[15]	-8.21	-8.83	-14.4	-11.3	13.2
[16]	-21.1	-19.8	7.01	11.6	26.9
[17]	-7.52	-21.8	-13.8	-2.84	6.58
[18]	-2.2	-6.12	-3.85	2.05	12.8
[19]	-5.21	-8.55	9.76	0.64	7.95
[20]	-1.85	-2.11	-10.8	-0.18	21.5
[21]	-3.76	-11.3	-0.03	8.53	2.8
[22]	-6.89	-8.73	-5.72	-2.45	-3.95
[23]	-8.31	-9.39	-3.85	-0.09	3.01
[24]	-5.85	-4.05	1.84	6.26	5.5
[25]	-6.07	2.76	-0.45	-1.82	-5.52
[26]	-9.5	-5.06	-13.2	2.87	-9.38
[27]	-11.2	-11.6	-12.4	3.91	4.13
